Measurements: US12435032B2, “L-γ-methyleneglutamine compounds and methods of use” (University of Mississippi, priority 2019, dated 2025)
Entries after “also recorded” stand apart in the source; their conditions may differ. Like-named read-outs stand apart in the source and are kept apart here.

Legend:
[1] = tested on: MCF-7 (ER+/PR+/HER2−) breast cancer cells; test: Growth inhibition of MCF-7 cells (Hoechst 33342 fluorescence vs non-treated wells); format: cell-based; conditions: dose-response 0.32-320 μM; for IC50: Homo sapiens
Procedure: (§1) Olaparib was chosen because it is one of a few FDA-approved chemotherapeutics for triple-negative breast cancer.
(§2) Cells were incubated for 15 minutes at 37° C.

[2] = tested on: SK-BR-3 (ER−/PR−/HER2+) breast cancer cells; test: Growth inhibition of SK-BR-3 cells; format: cell-based; conditions: Homo sapiens, dose-response 0.32-320 μM
Procedure: as §1, §2

[3] = tested on: triple-negative MDA-MB-231 breast cancer cells; test: Growth inhibition of MDA-MB-231 cells; format: cell-based; conditions: dose-response 0.32-320 μM; for IC50: Homo sapiens
Procedure: as §1, §2

[4] = tested on: MCF-10A non-cancerous breast cells; test: Growth inhibition of MCF-10A cells (negative control line); format: cell-based; conditions: Homo sapiens, dose-response 0.32-320 μM
Procedure: as §1, §2

[5] = tested on: MCF-7 breast cancer cells; test: Cytotoxicity (cell death, propidium iodide) in MCF-7 cells; format: cell-based; conditions: for EC50: Homo sapiens, MCF7
[6] = tested on: SK-BR-3 breast cancer cells; test: Cytotoxicity (cell death, propidium iodide) in SK-BR-3 cells; format: cell-based; conditions: for EC50: Homo sapiens, dose-response 0.32-320 μM
[7] = Cytotoxicity (cell death, propidium iodide) in MCF-10A cells; format: cell-based; conditions: human, MCF-10A non-cancerous breast cells
Procedure: (§3) To assess the selectivity of cytotoxicity for cancer cells, all drugs and compounds were screened against MCF-10A, non-cancerous breast cells.
as §2

[8] = tested on: triple-negative MDA-MB-231 breast cancer cells; test: cells; conditions: Homo sapiens, read-out: Cytotoxicity EC50
[9] = tested on: MCF-10A non-cancerous breast cells; test: Cytotoxicity (cell death, propidium iodide) in MCF-10A cells; format: cell-based; conditions: after the first 24 h
Procedure: as §3, §2

[10] = MCF7, 24 h, MCF-7, 24 h exposure
[11] = MCF7, 72 h, MCF-7, 72 h exposure
[12] = MCF-7, 24 h exposure, dose-response 0.32-320 μM, read-out: Cytotoxicity EC50
[13] = MCF-7, 72 h exposure, dose-response 0.32-320 μM, read-out: Cytotoxicity EC50
[14] = SK-BR-3, 72 h / after the first 24 h

| SMILES | IC50 [1, 10] [µM] | IC50 [1, 11] [µM] | IC50 ([2]; SK-BR-3, 24 h exposure) [µM] | IC50 ([2]; SK-BR-3, 72 h exposure) [µM] | IC50 ([3]; MDA-MB-231, 24 h exposure) [µM] | IC50 ([3]; MDA-MB-231, 72 h exposure) [µM] | Growth Inhibition IC50 ([3]; MDA-MB-231, 24 h exposure) | Growth Inhibition IC50 ([3]; MDA-MB-231, 72 h exposure) | IC50 ([4]; 24 h exposure) [µM] | IC50 ([4]; 72 h exposure) [µM] | EC50 [5, 12] [µM] | EC50 [5, 13] [µM] | EC50 ([6]; SK-BR-3, 24 h exposure) [µM] | EC50 ([6]; SK-BR-3, 72 h exposure) [µM] | cytotoxicity EC50 ([6]; SK-BR-3, at 24 or 72 h) | EC50 at 24 h ([7]; 24 h exposure) [µM] | EC50 at 24 h ([7]; head prints 24 h) [µM] | EC50 ([8]; MDA-MB-231, 24 h) [µM] | EC50 ([8]; MDA-MB-231, 72 h) [µM] | cytotoxicity EC50 [6, 14] | other results |
| --- | --- | --- | --- | --- | --- | --- | --- | --- | --- | --- | --- | --- | --- | --- | --- | --- | --- | --- | --- | --- | --- |
| C=C(C[C@H](N)C(=O)O)C(N)=O [Compound 1, (S)-2-amino-4-carbamoylpent-4-enoic acid] | 459 | 609 | 7.9 | 11.3 | 141 | 585 | potency that was commensurate to tamoxifen | longer-term performance commensurate to olaparib; also recorded: as efficacious as olaparib | > 1000 | > 1000 | 152 | 3 | 0.2 | 2 | commensurate EC50's at 24 or 72 h | > 1000 | > 1000 | 8.9 | 320 | – | EC50 for MCF-7 cytotoxicity ([5]; MCF-7, 72 h exposure): significantly lower than tamoxifen |
| C=C(C[C@H](N)C(=O)O)C(=O)NCc1ccccc1 [Compound 4, (S)-2-amino-4-(benzylcarbamoyl) pent-4-enoic acid] | > 1000 | 197 | 74.2 | 0.6 | 481 | 649 | – | poorer potency than olaparib | > 1000 | > 1000 | 664 | 218 | 0.1 | > 1000 | – | > 1000 | 563 | 374 | 980 | much reduced toxicity | cytotoxicity EC50 [9]: EC50 in the micromolar range |
| C=C(C[C@H](N)C(=O)O)C(=O)NCc1ccc([N+](=O)[O-])cc1 [Compound 6, (S)-2-amino-4-((4-nitrobenzyl)carbamoyl) pent-4-enoic acid] | 457 | 534 | 12.8 | 3.2 | 216 | 368 | potency that was commensurate to tamoxifen | longer-term performance commensurate to olaparib; also recorded: as efficacious as olaparib | > 1000 | > 1000 | 485 | 20.4 | 0.3 | 0.4 | commensurate EC50's at 24 or 72 h | > 1000 | > 1000 | 150 | 270 | – | – |
| C=C(C[C@H](N)C(=O)O)C(=O)NC1CC1 [Compound 7, (S)-2-amino-4-(cyclopropylcarbamoyl) pent-4-enoic acid] | 231 | 416 | 314 | 0.6 | 649 | 922 | – | poorer potency than olaparib | > 1000 | > 1000 | 64.1 | 508 | 272 | > 1000 | – | > 1000 | > 1000 | 933 | > 1000 | much reduced toxicity | Growth Inhibition IC50 ([1]; MCF-7, 72 h exposure): significantly less potent than tamoxifen; EC50 ([5]; MCF-7, 24 h exposure, read-out: EC50 for cytotoxicity): 64 µM |
